In patent US20200255489A1, “Novel Senolytic Peptides” (priority 2017, published 2020):
Where a SMILES comes first, the peptide text is derived from it. [ ]: non-standard residue; d: D form.

Columns and labels:
[1] = Acute Systemic Toxicity Test (ISO 10993-11); type: in vivo, mice (BALB/c); conditions: BALB/c
Protocol: Senolytic Peptides were evaluated for toxicity according to Acute Sytemic Toxicity Test (ISO 10993-11). This study was performed in strict accordance with the protocol approved by the TUBITAK-MAM Animal Ethics Committee. All the mice used in this study were of a BALB/c background at 8-12 weeks of age. All mice were kept in group housing until the start of the experiment after which they were placed in separate cages (5 mice per cage). The Senolytic Peptide (SEQ ID NO: 11) is administered intravenously using a mice model (BALB/c) at doses of 1, 10, 50 and 100 mg/kg and vehicle alone is also administered using single injections (n=5, per group). Control and Senolytic Peptide (SEQ ID NO: 11) injected mice were sacrificed 24 hours later for pathological examination. […] Blood samples were subsequently collected for determination and analysis of hematological and biochemical parameters. Plasma alanine aminotransferase (ALT), aspartate aminotransferase (AST), alkaline phosphatase (ALP) activities and blood urea, glucose, triglyceride levels were determined, inter alia, full hematological parameters.

[2] = system: senescent and non-senescent IMR90 cells; test: XTT viability assay on Doxorubicin induced senescent and non-senescent IMR90 fibroblasts; type: cell-based, human; conditions: senescence by 100 NM Doxorubicin, total doses 0 to 100 pM on 3 consecutive days, XTT after 7 days
Protocol: IMR-90 cells (ATCC #CCL-186, a diploid primary human fibroblast adherent cell line derived from fetal lung tissue) were treated with 100 NM Doxorubicin twice every other day for senescence induction. […] Later these cells were used for experiments comparing them to their non-Doxorubicin (non-senescent) treated counterparts. Senescent and non-senescent IMR90 fibroblasts were plated for XTT viability assays. 7000 senescent (obtained as described above) and 2000 non-senescent IMR90 fibroblasts were plated in 96-well plates incubated. The cells were treated with mock (PBS) or the Senolytic Peptide(s) at total doses ranging from 0 to 100 pM. The mock and peptide treatments were carried out for 3 consecutive days (24, 48 and 72 hours) after plating. After treatment period, the cells were incubated for 7 days until XTT-based viability was analyzed according to the manufacturer's instructions. […]
(§1) WI-38 cells (ATCC #CCL-75, a diploid primary human fibroblast adherent cell line derived from fetal lung tissue) and IMR90 cells (ATCC #CCL-186, a diploid primary human fibroblast adherent cell line derived from fetal lung tissue) were treated with a chemotherapy agent, 100 NM Doxorubicin twice every other day to induce senescence. […] After treatment period, the cells were incubated for 7 days until XTT-based viability was analyzed according to the manufacturer's instructions. […]

[3] = system: senescent and non-senescent WI-38 cells; test: XTT viability assay on Doxorubicin induced senescent and non-senescent WI-38 fibroblasts; type: cell-based, human; conditions: senescence by 100 NM Doxorubicin, total doses 0 to 100 pM on 3 consecutive days, XTT after 7 days
Protocol: WI-38 cells (ATCC #CCL-75, a diploid primary human fibroblast adherent cell line derived from fetal lung tissue) were treated with a chemotherapy agent, 100 NM Doxorubicin twice every other day to induce senescence. […] Later these cells were used for experiments comparing them to their non-Doxorubicin (non-senescent) treated counterparts. Senescent and non-senescent WI-38 fibroblasts were plated for XTT viability assays. 7000 senescent (obtained as described above) and 2000 non-senescent WI-38 fibroblasts were plated in 96-well plates incubated. The cells were treated with mock (PBS) or the Senolytic Peptide (SEQ ID NO: 11) at total doses ranging from 0 to 100 pM. The mock and peptide treatments were carried out for 3 consecutive days (24, 48 and 72 hours) after plating. After treatment period, the cells were incubated for 7 days until XTT-based viability was analyzed according to the manufacturer's instructions. […]
as §1

[4] = system: Doxorubicin induced renal senescence; test: Doxorubicin induced chemotoxicity / renal senescence in mice; type: in vivo; conditions: male BALB/c mice, doxorubicin 8 mg/kg i.p. twice
Protocol: This study was performed in strict accordance with the protocol approved by the TUBITAK-MAM Animal Ethics Committee. All the mice used in this study were of a BALB/c background at 8-12 weeks of age. All mice were kept in group housing until the start of the experiment after which they were placed in separate cages (4 mice per cage). Only male mice were used throughout the study. Where feasible, littermates were used. All mice were randomly assigned to experimental group. Mice were fed ad libidum. Initial weights of the mice were recorded. Mice were divided into three groups (A-No Treatment, B-Doxorubicin Treatment+Mock Treatment, C-Doxorubicin Treatment+Senolytic Peptide Treatment). Doxorubicin induced chemotoxicity was used for the induction of renal senescence in mice. Mice in Group B and C were intraperitoneally administered with doxorubicin (8 mg/kg) twice (at 0 and 10th day). Weights of the mice were recorded three times a week. 24 days after 2nd Doxorubicin treatment, PBS (mock Treatment) was administered intravenously to Group B and Senolytic Peptide (SEQ ID NO: 12) (3×10 mg/kg) was administered to Group C in three days (every other day) (FIG. 17A). The mice health, activity and appearance were monitored and they were sacrificed 14 days later. Gross pathology and pathology of the mice analysed. Mice organs and tissues are flash-frozen in liquid nitrogen and embedded in OCT and kept at −80 C. 10 micron thick mid-sagittal cryo-sections of the kidney were taken and SA-B-Gal activity was assayed as in Example 1-3. Doxorubicin induced alopecia and caused weight loss in mice and both conditions are reversed upon the Senolytic Peptide (SEQ ID NO: 12) Treatment (FIG. 17B).

[5] = peptide 3x10 mg/kg every other day

Row | Molecule | toxicity to the physical appearance of the mice ([1]; single intravenous injection 1, 10, 50 and 100 mg/kg, within 24 hours of injection) | toxicity by hematological parameters, AST, ALT, ALP levels and gross pathology ([1]; single intravenous injection, even at 100 mg/kg, 24 hours) | effect on viability of senescent versus non-senescent cells (XTT) [2] | effect on viability of senescent versus non-senescent cells (XTT) [3] | Doxorubicin induced alopecia [4, 5] | Doxorubicin induced weight loss [4, 5] | senescent cells in kidneys (SA-B-Gal activity of kidney sections) ([4]; peptide 3x10 mg/kg, sacrificed 14 days later)
1 | CC(C)C[C@H](NC(=O)[C@@H](NC(=O)[C@H](CC(C)C)NC(=O)[C@H](CCCNC(=N)N)NC(=O)[C@H](CCCCN)NC(=O)[C@H](CCCNC(=N)N)NC(=O)[C@@H]1CCCN1C(=O)[C@H](C)NC(=O)[C@H](CCCNC(=N)N)NC(=O)[C@H](CCCNC(=N)N)NC(=O)[C@H](CCCNC(=N)N)NC(=O)[C@H](CCCNC(=N)N)NC(=O)[C@H](CCCNC(=N)N)NC(=O)[C@H](CCCNC(=N)N)NC(=O)[C@H](CCCNC(=N)N)NC(=O)[C@H](CCCNC(=N)N)NC(=O)[C@H](CCCNC(=N)N)NC(=O)[C@H](CCCNC(=N)N)NC(=O)[C@H](CCCNC(=N)N)NC(=O)[C@H](CCCNC(=N)N)NC(=O)[C@H](CCCNC(=N)N)NC(=O)[C@H](CCCNC(=N)N)NC(=O)CNC(=O)[C@H](Cc1c[nH]c2ccccc12)NC(=O)[C@H](C)NC(=O)[C@H](CCCNC(=N)N)NC(=O)[C@H](CCCNC(=N)N)NC(=O)[C@H](CCCNC(=N)N)NC(=O)[C@H](CCCNC(=N)N)NC(=O)CNC(=O)CNC(=O)[C@H](CCCCN)NC(=O)[C@H](CCCNC(=N)N)NC(=O)[C@@H]1CCCN1C(=O)[C@H](N)CCCNC(=N)N)[C@@H](C)O)C(=O)O [SEQ ID NO: 11, dRPRKGGRRRR AWGRRRRRRR RRRRRRRAPR KRLTL] (H-[dR]PRKGGRRRRAWGRRRRRRRRRRRRRRAPRKRLTL-OH) | No toxicity | no toxicity |  |  |  |  | 
2 | PRKGGSRRRAWGNQRYARLIRQAIESAPEKRLTLA (PRKGGSRRRAWGNQRYARLIRQAIESAPEKRLTLA; Based on Homo sapiens sequence) [SEQ ID NO: 12] |  |  | selectively decreased the viability | selectively decreased the viability | reversed | reversed | cleared senescent cells in kidneys
